Experimental data from US7250396B2, “Juvenile hormone compositions and methods for making same” (priority 2003, dated 2007).

Tests used:
[1] = tested on: 16 day Indian Meal Moth larvae; test: Exposure of 16 day larvae to methoprene for varying periods of time; format: in vivo, Plodia Interpunctella; details: 1000 wppm MP
Experimental: An experiment was set up to determine the effect of exposing 16 day Indian Meal Moth larvae to methoprene for varying periods of time. The treatment levels tested were control at 0 wppm methoprene and 1000 wppm methoprene. Five larvae (3 females, 2 males) per sample were added to paper treated with the coating composition described in Example 1. The larvae were exposed to the samples for different amount of time. The times of exposure were 0 hrs., 20 min., 1 hr., 2 hrs., 4 hrs., 8 hrs., and 24 hrs. After larvae were exposed for the set amount of time, they were placed in an incubator (Precision Model No. 815) at 80° F. (27° C.) and at a relative humidity of 60 percent, where they were allowed to pupate, become adults, and reproduce. Observations were obtained throughout a 16 day period. From when adults hatched, the number of adults were counted and averaged over the remainder of the experiment. The number of new eggs were also counted and the average number of eggs per adult was calculated. Generally, egg production decreased as treatment levels increased.

[2] = tested on: day 16 larvae of the Indian Meal Moth, Plodia Interpunctella; test: Effect of methoprene at low concentrations: day 16 larvae on treated paper (behavior, webbing, survival over 19 days); format: in vivo
Experimental: An experiment was set up to determine the effectiveness of methoprene at very low concentrations on day 16 larvae of the Indian Meal Moth, Plodia Interpunctella. The concentrations tested ranged from the control at 0 wppm to 1000 wppm increasing by increments of 10×. Ten larvae per sample were added to the treated paper and exposed throughout the experiment in an incubator (Precision Model No. 815) at 80° F. (27° C.) and at a relative humidity of 60 percent. Behavior, webbing characteristics and survival rates were observed over 19 days.
The coating formulation components (excluding methoprene) and preparation procedure are described in Table 1, below.
As the Benzophenone was added to the mixture in step 7, above, the mixture was stirred in a mixer at 1500 rpm and at a temperature of 70° F. (21° C.) until the benzophenone was dissolved. As the methoprene was added to the mixture in step 8, above, the mixture was stirred in a mixer at 1500 rpm and at a temperature of 89° F. (32° C.).

Indian Meal Moth adults = test: Adult exposure to liquid methoprene in a UV coating: egg production and viability; format: in vivo, Plodia Interpunctella; details: for Total Percent Reduction: compared to the control; for Total No. of Eggs: eggs collected over 8 days; for Total No. of Viable Eggs: eggs that hatched
Experimental: An experiment was set up to determine how egg production would be affected when Indian Meal Moth adults were exposed to liquid methoprene in a UV coating. Adults were allowed to emerge into jars lined with treated paper. The treatment levels tested were a control at 0 wppm to 1000 wppm increasing by increments of 10×. A combination treatment of liquid methoprene at 1000 wppm and 1 weight percent diatomaceous earth was also tested. The eggs produced fell to a treated surface before being collected and placed into rearing food. Observations and egg collections were taken over a […] period.
The adults came from stock insects and the number exposed per treatment was not predetermined. The total number of eggs represents all eggs per treatment collected over 8 days. The total number of viable eggs represents the number of eggs that hatched. These larvae were allowed to feed for 14 days before counting.

COC(C)(C)CCCC(C)C/C=C/C(C)=C/C(=O)OC(C)C (centres unmarked) [methoprene, isopropyl-(2E, 4E)-11-methoxy-3,7,11-trimethyl-2,4-dodecadienoate]
Average No. of Adults/Day ([1]; time exposed 20 min.): 10
Average No. of Eggs/Adult ([1]; time exposed 20 min.): 34
Average No. of Adults/Day ([1]; time exposed 1 hr.): 12
Average No. of Eggs/Adult ([1]; time exposed 1 hr.): 30
Average No. of Adults/Day ([1]; time exposed 2 hrs.): 12
Average No. of Eggs/Adult ([1]; time exposed 2 hrs.): 19
Average No. of Adults/Day ([1]; time exposed 4 hrs.): 10
Average No. of Eggs/Adult ([1]; time exposed 4 hrs.): 25
Average No. of Adults/Day ([1]; time exposed 8 hrs.): 9
Average No. of Eggs/Adult ([1]; time exposed 8 hrs.): 17
Average No. of Adults/Day ([1]; time exposed 24 hrs.): 7
Average No. of Eggs/Adult ([1]; time exposed 24 hrs.): 9
SURVIVAL RATE ([2]; 1 wppm methoprene in coating, day 4): 8 number of larvae surviving out of 10 larvae
SURVIVAL RATE ([2]; 1 wppm methoprene in coating, day 7): 7 number of larvae surviving out of 10 larvae
SURVIVAL RATE ([2]; 1 wppm methoprene in coating, day 11): 6 number of larvae surviving out of 10 larvae
SURVIVAL RATE ([2]; 1 wppm methoprene in coating, day 13): 5 number of larvae surviving out of 10 larvae
SURVIVAL RATE ([2]; 1 wppm methoprene in coating, day 19): 1 number of larvae surviving out of 10 larvae
SURVIVAL RATE ([2]; 10 wppm methoprene in coating, day 4): 8 number of larvae surviving out of 10 larvae
SURVIVAL RATE ([2]; 10 wppm methoprene in coating, day 7): 8 number of larvae surviving out of 10 larvae
SURVIVAL RATE ([2]; 10 wppm methoprene in coating, day 11): 7 number of larvae surviving out of 10 larvae
SURVIVAL RATE ([2]; 10 wppm methoprene in coating, day 13): 7 number of larvae surviving out of 10 larvae
SURVIVAL RATE ([2]; 10 wppm methoprene in coating, day 19): 2 number of larvae surviving out of 10 larvae
SURVIVAL RATE ([2]; 100 wppm methoprene in coating, day 4): 6 number of larvae surviving out of 10 larvae
SURVIVAL RATE ([2]; 100 wppm methoprene in coating, day 7): 4 number of larvae surviving out of 10 larvae
SURVIVAL RATE ([2]; 100 wppm methoprene in coating, day 11): 1 number of larvae surviving out of 10 larvae
SURVIVAL RATE ([2]; 100 wppm methoprene in coating, day 13): 1 number of larvae surviving out of 10 larvae
SURVIVAL RATE ([2]; 100 wppm methoprene in coating, day 19): 1 number of larvae surviving out of 10 larvae
SURVIVAL RATE ([2]; 1000 wppm methoprene in coating, day 4): 7 number of larvae surviving out of 10 larvae
SURVIVAL RATE ([2]; 1000 wppm methoprene in coating, day 7): 5 number of larvae surviving out of 10 larvae
SURVIVAL RATE ([2]; 1000 wppm methoprene in coating, day 11): 3 number of larvae surviving out of 10 larvae
SURVIVAL RATE ([2]; 1000 wppm methoprene in coating, day 13): 3 number of larvae surviving out of 10 larvae
SURVIVAL RATE ([2]; 1000 wppm methoprene in coating, day 19): 0 number of larvae surviving out of 10 larvae
Behavior ([2]; exposed larvae, as early as day 4 of the testing period, increased nipping and cannibalism): showed signs of aggression
Webbing characteristics ([2]; larvae exposed to 1 wppm methoprene): slightly thicker throughout the dish than the control
Webbing characteristics ([2]; larvae exposed to 10 wppm methoprene): thicker, more centralized webbing
Webbing characteristics ([2]; larvae exposed to 10 wppm methoprene (second mention, compared with the 10 wppm sample)): dense and more centralized than the 10 wppm methoprene sample
Webbing characteristics ([2]; larvae exposed to 1000 wppm methoprene): completely centralized mound of webbing
survival rate compared to the control sample ([2]; treatment levels as low as 1 wppm): significant decrease in survival rate
Percent Viable Eggs (Indian Meal Moth adults; 10 wppm MP): 7.5%
Total Percent Reduction (Indian Meal Moth adults; 10 wppm MP): 85.6%
Total No. of Eggs (Indian Meal Moth adults; 10 wppm MP): 1430
Total No. of Viable Eggs (Indian Meal Moth adults; 10 wppm MP): 108
Percent Viable Eggs (Indian Meal Moth adults; 100 wppm MP): 18%
Total Percent Reduction (Indian Meal Moth adults; 100 wppm MP): 65.4%
Total No. of Eggs (Indian Meal Moth adults; 100 wppm MP): 1285
Total No. of Viable Eggs (Indian Meal Moth adults; 100 wppm MP): 234
Percent Viable Eggs (Indian Meal Moth adults; 1000 wppm MP): 36%
Total Percent Reduction (Indian Meal Moth adults; 1000 wppm MP): 30.8%
Total No. of Eggs (Indian Meal Moth adults; 1000 wppm MP): 1190
Total No. of Viable Eggs (Indian Meal Moth adults; 1000 wppm MP): 432
